What was measured:
Type in all cases: cell-based, human
primary hepatocytes = experiment: 3D organoid culture of adult donor-derived primary hepatocytes (HepAOs): organoid formation and expansion; details: single hepatocyte suspensions from adult donors, supplemented EM, over 2 weeks (FIG. 1E)
Experimental: Human hepatic cells were counted and seeded at a concentration of 100 cells per μL of the ECM Matrigel™ (Corning™). The cell-ECM mix were seeded on 24 well plates Greiner™) that had been incubated 24 hours prior at 37° C. A total of 50 μL of Matrigel™ were added to the center of each well to form a dome shaped chamber and incubated for 5-8 minutes at 37° C. before adding 500 μμL of isolation medium to each well. Media specifications and storage times are indicated.
After 4 days, the isolation medium was substituted for expansion medium (EM) containing 10 μM ROCK inhibitor (Y-27632). The EM was replenished three times per week.
After the first 6 days in culture, the ROCK inhibitor was removed from the media. The cells within the ECM mix were expanded for 14 days to form organoids. After 14 days, the media was supplemented with 25 ng/mL of BMP7, and the organoids were cultured for 5 days before replacing the media with hepatocyte differentiation medium (DM). The DM were replenished every 3 days. At day 7 of differentiation, the organoids were used for analyses. […]
We assessed the organoid-forming efficiency at one week in single cell derived organoids (FIG. 1B and FIG. 1C). […]

HepG2 cells = experiment: 3D organoid culture of HepG2 cells (HepGOs): organoid counts; details: compared to serum-containing growth media (HepG2 GM) (FIG. 3B)
Excerpt: Well-differentiated hepatoma cell lines HepG2, PLC/PRF/5, and HuH7 were maintained as previously described. In initial studies, classical culture media was used, containing high glucose concentration (4.5 g/L) corresponding to systemic hyperglycemia. Low glucose concentrations corresponding to normoglycemia (1 g/L) were utilized in parallel to study the effects on cell proliferation. HepG2 cells were first cultured in monolayer. Once 80-90% confluence was reached the cells were collected and used to start the organoid culture. HepGOs were generated on 48 well tissue culture plates (Grenier™). The plates were left overnight at 37° C. before using them to plate the Matrigel™ matrix. Cells were plated at a concentration of approximately 40 cells per μL of Matrigel™. We used a 25 μL drop/well to form the organoid dome at the center and the organoid dome were overlaid with 250 μLs of human expansion medium (EM) with the multiple EM variations tested. The plates were then incubated for 7 days under standard tissue culture conditions (37° C. and 5% CO2). Media was changed every other day. After 7 days of expansion, the media was replaced with differentiation media (DM). The organoids were cultured for an additional 7 days, at which point the organoids were used for analysis.

HepGOs = experiment: Glucose production assay in HepGOs; details: HepGOs expanded in EM+F+OSM, 24-hour starvation, 24 hours production (FIG. 7D)
Experimental: Prior to each glucose production assay, organoid cells were serum starved for 3 and 24 hours. The assay was done in 3D organoid culture media, containing no glucose or pyruvate. For substrate glucose production assays, the glucose production basal media (BM) were supplemented with either glycerol, glucagon, or a combination of both. Data were obtained by obtaining media from wells that contained 12-14 Matrigel™ droplets containing approximately 1,400 organoids. Glucose measurements were done enzymatically with a Glucose Assay Kit (Abcam™).
The HepGOs were starved for 3 or 24 hours and then allowed to produce glucose for 24 hours. The glucose production basal media (BM) was supplemented with either glycerol, glucagon, or a combination of the two. Data was obtained pooled organoids with a total of ˜70,000 organoid cells. The scale bar is 100 μm. (**p<0.01, *p<0.05).

PCK1 = experiment: Q-PCR expression of PCK1 in organoids; details: fresh or frozen and re-expanded organoids, EM conditions C3-C5 (FIG. 5)
Experimental: (§1) RNA was first extracted from the differentiated organoids using Trizol™. RNA was used for cDNA synthesis using the iScript Kit (BioRad™). Quantitative PCR (Q-PCR) was performed for targets of interest including G6PC, PCK1, and AFP using Bio-Rad™ CFX96. Bio Rad™'s SYBR Green (SG), a asymmetrical cyanine dye used as a nucleic acid stain in Q-PCR super mix was used with the target-specific primers. See Table 3, below for a description of the primers used for hepatocyte expression. The data was analyzed using Excel™ and Prism 8™.
(§2) HepGOs were expanded for one month, and then media were supplemented with 25 ng/mL BMP7 for 5 days before replacing the media with hepatocyte DM for one week. The data are from experiments that were done in at least in duplicate with three replicates per condition and were normalized to the endogenous control (β-Actin) and HepG2 GM cultures. The scale bar is 100 μm.

G6PC = experiment: Q-PCR expression of G6PC in organoids; details: fresh or frozen and re-expanded organoids, EM conditions C3-C5 (FIG. 5)
Experimental: as §1, §2

## Cc1cccc(-c2nn(C(=S)Nc3ccccc3)cc2-c2ccnc3ccccc23)n1 [A8301]
Primary hepatocytes
  number of organoids formed / expansion: showed the least number of organoids being formed
HepG2 cells
  HepGO number: significantly limited the 3D culture and expansion of HepG2 cells

## glucagon
HepGOs
  glucose production: significantly enhanced glucose production

B1: OSM: oncostatin M, a member of the IL-6 family of cytokines (protein, UniProt P13725 26-221, looked up)
Oncostatin-M: AAIGSCSKEYRVLLGQLQKQTDLMQDTSRLLDPYIRIQGLDVPKLREHCRERPGAFPSEETLRGLGRRGFLQTLNATLGCVLHRLADLEQRLPKAQDLERSGLNIEDLEKLQMARPNILGLRNNIYCMAQLLDNSDTAEPTKAGRGASQPPTPTPASDAFQRKLEGCRFLHGYHRFMHSVGRVFSKWGESPNRSRR
PCK1
  induction of PCK1 expression: tend to decrease at one month post differentiation
G6PC
  induction of G6PC expression: tend to decrease at one month post differentiation

B2: BMP7: bone morphogenetic protein 7 (protein, UniProt P18075 293-431, looked up)
Bone morphogenetic protein 7: STGSKQRSQNRSKTPKNQEALRMANVAENSSSDQRQACKKHELYVSFRDLGWQDWIIAPEGYAAYYCEGECAFPLNSYMNATNHAIVQTLVHFINPETVPKPCCAPTQLNAISVLYFDDSSNVILKKYRNMVVRACGCH
HepG2 cells
  HepGO number: slightly but not significantly improved HepGO number
